According to patent publication EP4818187A1, “COMPOUND AND USE THEREOF” (Ganzhou Hemay Pharmaceutical, Co., Ltd, priority 2023, dated 2025):

How the values were obtained:
[1] = tested on: BxPC-3 (human pancreatic cancer in situ); experiment: In vitro inhibitory effect against human tumor cells (MTT or SRB); format: cell-based; conditions: BXPC-3, 72 h, BxPC-3, test method printed MTT (head: SRB), 3 days
[2] = tested on: human gastric cancer NCI-N87; experiment: Biological Example 3: in vivo xenograft model of human gastric cancer NCI-N87; set-up: species or system Balb/c-nu nude mice; conditions: nude mice
Procedure: First, the xenograft model of human gastric cancer NCI-N87 was established subcutaneously in nude mice by inoculation with a cell-matrigel mixture. When the xenograft tumor grew to a volume of 100-300 mm^3 and maintained stable growth, the experimental animals were randomly grouped using remainder method based on the tumor volume and administered with drugs. The tumor volume was measured 2 to 3 times every week. After the dosing period was completed, the experimental animals were killed, and the subcutaneous tumors were excised and weighed. The anti-tumor activity of the drug in this model was evaluated based on relevant data of the tumor volumes and the tumor weights. Table 8: List of experimental animal groups and dosage regimens
Calculation formula of the tumor volume: volume=0.5× long diameter × short diameter^2. Relative tumor volume(RTV): RTV = Vt/ V0 [formula]
V0 is the tumor volume measured at the time of grouping for dosing (i.e., d0), and Vt is the tumor volume measured each time. Relative tumor proliferation rate(T/C): T/C = TRTV /CRTV × 100% [formula]
T is the mean RTV of the test compound, and C is the mean RTV of the model control group. [formula] Body weight change percentage = Wn /W0 × 100% [formula]
Wn: mean body weight of each group of experimental animals on day n, and W0: mean body weight of each group of experimental animals on day 0.
The purchased experimental animals were subjected to balanced feeding for 3 days. A xenograft model was established in nude mice by inoculation with a cell-matrigel mixture: conventionally cultured NCI-N87 cells in the logarithmic growth phase were sampled, digested, collected, and adjusted with PBS to a cell density of 6×10^7 cells/mL. In an ice water bath, the cell suspension was slowly added to an equal volume of matrigel, the system was fully mixed, and then the xenograft model was established by subcutaneous inoculation in the right armpit of male nude mice, with 0.15 mL/mouse and a cell inoculum size of approximately 4.5 million cells/mouse.
The tumor growth of the model animals was regularly observed. When the mean tumor volume of the model nude mice reached about 100-300 mm^3, the experimental animals were randomly grouped using the remainder method based on the tumor volume, and administered with drugs. The day on which the animals were grouped was day 0. After grouping, drugs were administered to each group according to Table 8. The dosage or dosing period can be appropriately adjusted based on the tumor growth and the animal state. After administration, the tumor volumes of the experimental animals were measured 2-3 times every week until the experiment was completed. After the dosing period was completed, the experimental animals were killed, and the subcutaneous tumors were excised and weighed. The anti-tumor activity of each compound in this model was evaluated based on relevant data of the tumor volumes and tumor weights. Table 9: Effect on growth of xenograft model of human gastric cancer NCI-N87
The test was performed based on the dosage regimen in Table 10, following the method in Biological Example 2. Table 10: List of dosage regimens

## CC[C@H](C)[C@@H]([C@@H](CC(=O)N1CCC[C@H]1[C@H](OC)[C@@H](C)C(=O)N[C@H](C)[C@@H](OCc1ccc(O[C@@H]2O[C@H](C(=O)[O-])[C@@H](O)[C@H](O)[C@H]2O)cc1OCc1cn(CCCCCC(=O)Nc2ccc(-c3ccc(/N=N/c4ccc5c(S(=O)(=O)[O-])cc(S(=O)(=O)[O-])c(N)c5c4O)c(C)c3)cc2C)nn1)c1ccccc1)OC)N(C)C(=O)[C@@H](NC(=O)[C@H](C(C)C)N(C)C)C(C)C.[Na+].[Na+].[Na+] [Example compound 2]
[1]; With addition of βGU (1 µg/well)
  IC50: 3.9 nM
[1]; βGU-free
  IC50: 43 nM
[2]; 15 mg/kg i.v. qw×2
  Final body weight change (%): 11.4%
  Maximum body weight change (%): 11.4, d26%
  Relative volume RTV (x±S.D.): 0.48±0.07
  T/C (%): 5.9%
  Tumor inhibition rate (%): 96.4%
  Tumor weight (g, x±S.D.): 0.048 ± 0.009 g
[2]; 15 mg/kg i.v. qw×2, End
  Body weight (g, x±S.D.) End: 26.9 ± 1.3 g
[2]; 15 mg/kg i.v. qw×2, Start
  Body weight (g, x±S.D.) Start: 24.2 ± 1.5 g
